Data on three compounds can be found in article PMC10507961, “Development of an amoxicillin-radix scutellaria extract formulation and evaluation of its pharmacokinetics in pigs” (BMC Veterinary Research, 2023).

One data set concerns Salmonella. In words: Antibacterial susceptibility test (MIC), Salmonella. Type of data set: cell-based. The note with it: read-out: AMO MIC. As to the method:
The minimum inhibitory concentration (MIC) of AMO and RSE was tested in the bacteria mentioned above; this method was previously reported by Jiarong Cao, et al..
(§1) Amoxicillin or baicalin was added to a sterile 96-well plate with multiple dilutions from low to high concentrations from the first well to the tenth well, with 100 μL per well. 100 μL of bacterial solution was added to a concentration of 1 × 10^6 CFU/mL. 200 μL of the bacterial solution was added to the 11th well as positive control, and 200 μL of broth was added to the 12th well as a negative control. The MIC test of quality control bacteria was carried out at the same time in each test. The 96-well plate was placed in a 37 ℃ incubator for 18 to 24 h, and the results were observed and recorded. The experiment was repeated three times.

A further data set concerns Streptococcus. In words: Antibacterial susceptibility test (MIC), Streptococcus. Type of data set: cell-based. The note with it: 16 strains, MIC range. As to the method:
as §1, with “Fifteen strains of E. coli, 16 strains of […], and 16 strains of […] were provided by the Department of Pharmacology and Toxicology of China Agricultural University. The minimum inhibitory concentration (MIC) of AMO and RSE was tested in the bacteria mentioned above; this method was previously reported by Jiarong Cao, et al.. Amoxicillin” for “Amoxicillin”

For another data set, the system named is Escherichia coli. Description: Antibacterial susceptibility test (MIC), E. coli. The note with it: 15 strains, MIC range, read-out: AMO MIC. In kind it is cell-based. As to the method:
as §1, with “Fifteen strains of E. coli, 16 strains of […], and 16 strains of […] were provided by the Department of Pharmacology and Toxicology of China Agricultural University. The minimum inhibitory concentration (MIC) of AMO and RSE was tested in the bacteria mentioned above; this method was previously reported by Jiarong Cao, et al.. Amoxicillin” for “Amoxicillin”

Data set [1] is described as follows: Second pharmacokinetic study in pigs (three doses of AMO-RSE powder). The note with it: p.o. AMO-RSE powder, tested dose range (AMO 10–30 mg/kg, BCL 5–15 mg/kg). Type of data set: in vivo. The source says: Twelve healthy Landrace × Large White hybrid pigs, half male and half female, with an average body weight of 15 ± 3.2 kg (range 11–18 kg), were randomly divided into two groups (three male and three female pigs in each group) for pharmacokinetics experiments and were purchased from JuCong agriculture, Nanning, Guangxi. Commercial feed and water free of antibiotics and target drugs were freely available to the pigs housed individually in 12 pig pens. After the experiment, the pigs were released.
Pig jugular vein blood was collected in an anticoagulant tube, and centrifuged at 3000 rpm for 10 min, and the separated plasma was stored at -20 ℃. The plasma sample was placed at room temperature for natural thawing, and it was mixed evenly with a vortex, 1 mL of the plasma sample was accurately measure and placed it in a 10 mL centrifuge tube with a cover. […]
Using HPLC to measured the content of AMO. […] The limits of detection and quantification of amoxicillin in the plasma were 0.03 and 0.1 µg/ml, respectively.
The content of BCL were measured using HPLC. […] The limits of detection and quantification of […] in the plasma were 0.03 and 0.1 µg/ml, respectively. […]
The concentrations of AMO and BCL in plasma at each time point are expressed as the arithmetic mean ± SD. The pharmacokinetic parameters were calculated by using noncompartmental analysis based on statistical moment theory. […]

Data set [2] in a line: Moisture absorption percentage test. Type of data set: physicochemical. The procedure: Sample dried to a constant weight (1 g) was placed in a 5 mL flat weighing bottle, shaken gently to evenly distribute the sample, weighed accurately, put it in a dryer containing supersaturated sodium chloride solution (the weighing bottle is opened), and weighed after 24 h (n = 3). The moisture absorption percentage was calculated according to the following formula: Moistureabsorptionpercentage(%)=weightaftermoistureabsorption-weightbeforemoistureabsorption/weightbeforemoistureabsorption×100%

A further data set can be described thus: Angle of repose test. In kind it is physicochemical. The note with it: fixed funnel method. The procedure:
The fixed funnel method was used to measure the angle of repose. A funnel was fixed at a height of 3 cm above coordinate paper (the paper was placed on a horizontal table), and materials were added through the funnel until the top of the accumulated cone came into contact with the bottom of the funnel. The cone diameter was measured, and the angle of repose was calculated with the ratio of the distance between the funnel and paper to the cone radius as the tangent.

Values after ≈ are worked out from the molar mass of the structure shown.

The term MIC denotes the smallest concentration in the dilution series that meets the test's criterion for growth inhibition. In the case of `CC1(C)S[C@@H]2[C@H](NC(=O)[C@H](N)c3ccc(O)cc3)C(=O)N2[C@H]1C(=O)O` [AMO, Amoxicillin], the results for the minimal inhibitory concentration (MIC) in the data set on Salmonella, in the data set on Streptococcus (read-out: AMO MIC) and in the data set with Escherichia coli were 0.25 to 32 µg/mL (≈ 0.684 to 87.6 µM), 0.5 to 64 µg/mL (≈ 1.37 to 175 µM) and 1 to 8 µg/mL (≈ 2.74 to 21.9 µM), respectively. In addition, the “AMO MIC” value in the data set on Streptococcus was in the range of 1 to 128 µg/mL. Also, in data set [1], the “dose linearity of pharmacokinetics” value is “linear pharmacokinetic properties”.
Regarding `O=C(O)[C@H]1O[C@@H](Oc2cc3oc(-c4ccccc4)cc(=O)c3c(O)c2O)[C@H](O)[C@@H](O)[C@@H]1O` [BCL, baicalin], the “dose linearity of pharmacokinetics” value in data set [1] is “linear pharmacokinetic properties”.
On to `OC[C@H]1OC(O)[C@H](O)[C@@H](O)[C@@H]1O` (some centres unmarked) [glucose], for which the “moisture absorption percentage, rank among five excipients” value in data set [2] was “lowest”. In the data set “Angle of repose test”, this compound gave an angle of repose of 41.44 °.
